In patent US20260137652A1, “Composition Comprising Non-Phosphorylated Tryptamine” (SINTALICA S.R.L., priority 2022, published 2026):

Columns and labels:
[1] = Stability test of psilocin for 24 hours: darkening and psilocin concentration by UHPLC-MS; format: physicochemical
Description: The inclusion complex obtained by the resuspension of the freeze-dried complex of (β-carotene and 2-hydroxypropylether p-cyclodextrin in the ratio 1:5 with 3 mg of psilocin dissolved in 1 mL of H2O:EtOH (8:2) solution, was tested to evaluate the inclusion complex stability.
The complex stability was evaluated for 24 hours, under different environmental conditions: • Sample A) 22° C. with no light irradiation • Sample B) 30° C. with no light irradiation • Sample C) 22° C. under UV irradiation (using an UVA lamp A=365 nm) • Sample D) Freeze-dried for 30 days • Sample E) 30° C. under UV irradiation (using an UVA lamp A=365 nm)
All the complex stability tests were compared to a “blank” psilocin solution in H2O:EtOH (8:2).
For evaluating psilocin stability chromatographic analyses were performed using a Nexera X2 UHPLC system coupled to a LCMS-8060 mass spectrometer (Shimadzu, Duisburg, Germany). Data acquisition and processing was performed using the LabSolutions software (version 5.95 Shimadzu). The separation of the various tryptamines was achieved by using an Ascentis Express 90 HILIC column (150×2.1 mm, 2.7 pm) (Merck Life Science) and a mobile phase composed of ammonium formate 0.1 M in water as solvent A, and acetonitrile as solvent B. The gradient program was as follows: 0 min, 90% B; 3 min, 75% B; 10 min, 20% B; 13 min 20% B; 15 min 90% B. The flow rate was 0.5 mL min−1; the column oven was set at 40° C. and the injection volume was 1 pL. Mobile phases were filtered through a 0.45 µm membrane.
The synthetic psilocin was weighed in a volumetric flask and diluted with water: ethanol (8:2) at a concentration of 3000 ppm. Then, it was serially diluted to get a final concentration of 0.10 ppm and analyzed according to the above reported method, in order to verify the stability for 24 hours. At time 0, it was 0.11 ppm. After 24 hours the concentration decreased to 0.04 ppm, showing a concentration loss of 60%.

[2] = Stability test by NMR spectroscopy; format: physicochemical; conditions: Sample A: 22° C. with no light irradiation
Description: The same specimens were analyzed also by NMR Spectroscopy using Varian 500 MHz spectrometer equipped with a OneNMR probe.
Samples were recorded using a PRESAT pulse sequence suppressing the signal of H2O and EtOH acquiring 128 scans for each spectrum. H2O (4.64 ppm) was used as reference line.
For the NMR analysis, all samples were treated as follow: 530 pL were poured into NMR tube (5 mm i.d.) then coaxial tube was filled with D2O to lock the solvent frequency.

CAR-induced paw edema = assay: CAR-induced paw edema, paw volume by plethysmometer; format: in vivo, Sprague-Dawley rats; conditions: rats, measured every hour for 6 h after CAR, vs CAR group
Description: (§1) The biological effect of the complex, in comparison with the psilocin solution, against inflammation was tested by their administration to 8-12 weeks old male rats.
(§2) A composition comprising complex according to example 1, wherein the ratio of β-carotene to 2-hydroxypropylether β-cyclodextrin was 1:5, was used. Complexes (psilocin, β-carotene, ascorbic acid with ratio 1:1:1 and 2-hydroxypropylether β-cyclodextrin) containing two different concentrations of psilocin have been tested: • a complex containing 3 mg of psilocin, • a complex containing 10 mg of psilocin.
(§3) The study was performed using male Sprague-Dawley rats (200-250 g; Envigo, Milan, Italy). Food and water were accessible ad libitum. Rats were concurrently subjected to a singular subplantar injection of CAR (100 pL of saline solution containing 1% CAR). Paw edema was measured with a plethysmometer (Ugo Basile, Comerio, Varese, Italy) (Salvemini, D.; Wang, Z.-Q.; Wyatt, P. S.; Bourdon, D. M.; Marino, M. H.; Manning, P. T.; Currie, M. G., “Nitric oxide: A key mediator in the early and late phase of carrageenan-induced rat paw inflammation”, Br. J. Pharmacol. 1996, 118, 829-838) prior to CAR injection and every hour for 6 h. Edema was expressed as the increase in paw volume (mL) after CAR injection relative to the pre-injection value for all animals. Scores were expressed as paw volume difference (mL).
All values are expressed as mean±standard deviation (SD) of N=10 observations. For the in-vivo studies, N represents the number of animals studied. Data were analyzed by one-way ANOVA followed by a Bonferroni post-hoc test for multiple comparisons. A p-value less than 0.05 will be considered significant. #p<0.05 vs. CTR, *p<0.05 vs. CAR, ##p<0.01 vs. CTR, **p<0.01 vs. CAR, ###p<0.001 vs. CTR, ***p<0.001 vs. CAR, °p<0.05 vs. 3 m/Kg, § p<0.05 vs. 10 mg/Kg, °°p<0.01 vs. 3 mg/Kg, §§ p<0.01 vs. 10 mg/Kg, 000 p<0.001 vs. 3 mg/Kg, §§§ p<0.001 vs. 10 mg/Kg.

paw tissues = assay: Histology (H&E staining) of paw tissues after CAR injection; format: in vivo, Sprague-Dawley rats; conditions: for inflammatory cell infiltration and edema / histological score (H&E): rat paw tissues 6 h after CAR injection
Description: as §1, §2, §3
Paw tissues were collected 6 h after CAR injection. Samples were fixed in 10% formaldehyde solution in phosphate buffer saline (PBS) at room temperature for 24 h, dehydrated by graded series of ethanol and at the list embedded in Paraplast (Sherwood Medical, Mahwah, NJ, USA). Sections of 7-pm thickness were cut with a microtome, deparaffinized with xylene and stained with hematoxylin and eosin (H&E). All sections were examined using an Axiovision Zeiss (Milan, Italy) microscope by two investigators blinded to the treatment conditions. […]
All values are expressed as mean±standard deviation (SD) of N=10 observations. […] Data were analyzed by one-way ANOVA followed by a Bonferroni post-hoc test for multiple comparisons. […]

MPO = MPO analysis (marker of neutrophil infiltration) after CAR injection; format: in vivo, Sprague-Dawley rats; conditions: rats; for MPO activity: vs CAR group
Description: as §1, §2, §3
The activity of MPO (myeloperoxidase is an enzyme released by neutrophils and used as a marker of neutrophil infiltration) was assessed as previously described (Mullane, K. M.; Kraemer, R.; Smith, B. “Myeloperoxidase activity as a quantitative assessment of neutrophil infiltration into ischemic myocardium.” J. Pharmacol. Methods 1985, 14, 157-167). The rate of change in absorbance was calculated spectrophotometrically at 650 nm. MPO activity was measured in U per gram weight of wet tissue and was quantified as the quantity of enzyme degrading […] of peroxide 1 min at 37° C.
All values are expressed as mean±standard deviation (SD) of N=10 observations. For the in-vivo studies, N represents the number of animals studied. […]

mechanical allodynia = assay: Pain behavior: mechanical allodynia, Von Frey test after CAR injection; format: in vivo, Sprague-Dawley rats; conditions: rats, 1-6 hours post CAR injection, as compared to CAR group
[3] = Sample B: 30° C. with no light irradiation, 24 hours

For `CN(C)CCc1c[nH]c2cccc(O)c12` [psilocin, 4-hydroxy-N,N-dimethyltryptamine], the darkening ([1]; Sample A: 22° C. with no light irradiation, 24 h) was “started the darkening process since the first 2 hours of storing”, the “psilocin concentration after 24 hours” value ([1]; Sample A: 22° C. with no light irradiation, H2O:EtOH (8:2), after 24 hours) was 0.04 ppm and the “psilocin concentration at time 0” value ([1]; Sample A: 22° C. with no light irradiation, H2O:EtOH (8:2), time 0) was 0.11 ppm. For the same compound, the “loss of psilocin concentration” value ([1]; Sample A: 22° C. with no light irradiation, after 24 hours) was 60%, the psilocin concentration trend ([1]; Sample A: 22° C. with no light irradiation, time 0 vs after 24 hours) was “decreased” and the darkening [1, 3] was “darkening process was observed”. The psilocin concentration trend [1, 3] was “decreased during 24 hours”, the darkening ([1]; Sample C: 22° C. under UV irradiation (365 nm), 24 h) was “started the darkening process since the first 2 hours of storing” and the psilocin concentration trend ([1]; Sample C: 22° C. under UV irradiation (365 nm), 24 hours) was “decreasing during 24 hours”. For the same compound, the darkening ([1]; Sample D: freeze-dried, redissolved 30 days after freeze-drying, ambient temperature, 24 h) was “started the darkening process since the first 2 hours of storing”, the darkening ([1]; Sample E: 30° C. under UV irradiation (365 nm), 24 h) was “Darkening was observed” and the psilocin concentration trend ([1]; Sample E: 30° C. under UV irradiation (365 nm), 24 hours) was “decreased during 24 hours”. For the same compound, the “degradation product by NMR compared with the other solutions” value [2] was “less degradation product”, the “CAR-induced paw edema (paw volume)” value (CAR-induced paw edema; 3 mg/Kg) was “reduction of paw volume” and the “CAR-induced paw edema (paw volume)” value (CAR-induced paw edema; 3 mg/Kg, listed as Psilocin) was “significantly reduced”. The “CAR-induced paw edema (paw volume)” value (CAR-induced paw edema; 10 mg/Kg) was “reduction of paw volume”, the “CAR-induced paw edema (paw volume)” value (CAR-induced paw edema; 10 mg/Kg, listed as Psilocin) was “significantly reduced” and the “inflammatory cell infiltration and edema / histological score (H&E)” value (paw tissues; 3 mg/Kg) was “meaningfully decreased”. The “inflammatory cell infiltration and edema / histological score (H&E)” value (paw tissues; 10 mg/Kg) was “meaningfully decreased”, the “histological anti-inflammatory effect of psilocin as compared to the complex administration” value (paw tissues; all doses (3 and 10 mg/Kg), rats) was “better anti-inflammatory effect” and the MPO activity (MPO; 3 mg/Kg) was “reduced the MPO activity”. The MPO activity (MPO; 10 mg/Kg) was “reduced the MPO activity”, the “MPO activity effect of psilocin as compared to the complex administration” value (MPO; all doses (3 and 10 mg/Kg)) was “significant effect” and the “paw-withdrawal threshold (Von Frey)” value (mechanical allodynia; 3 mg/Kg) was “significantly increased”. For the same compound, the “paw-withdrawal threshold (Von Frey)” value (mechanical allodynia; 10 mg/Kg) was “significantly increased”.
